# Entries after “also recorded” stand apart in the source; their conditions may differ.
# Legend:
# Jurkat T-cells [1] = assay: L-PHA-FITC staining of Jurkat T cells cultured 3 days with monosaccharides, metabolites, Vitamin D3 or glycosidase inhibitors, FACS; type: cell-based, human; conditions: for Mgat5-modified N-glycan expression: Jurkat T; for Mgat5 N-glycans / β1,6GlcNAc-branched N-glycans expression (L-PHA staining): 3 days culture with supplement
# Procedure: (§1) Mice used for L-PHA staining and quantitative RT-PCR were sex and age matched. […] 129/Sv mice were from an original Mgat5 gene targeted population (28). All other mice (SJL, NOD, Balb/c and B10.S) were obtained from Jackson Laboratories. […] Mouse and Jurkat cells were stained with L-PHA and LEA by first blocking with PBA (2% bovine serum albumin/0.01% azide/PBS) for 10 min at 4° C. and then incubated with 4 μg/ml of L-PHA-FITC (Vector Laboratories Inc.) or 20 μg/ml of LEA-FITC (Sigma) in PBA for 40 min at 4° C. and analyzed by a BD FACSCalihur (BD Pharmingen, San Diego, Calif.). The level of lectin binding was normalized by untreated control and calculated as a percentage (Sample intensity/control intensity-1) %.
# (§2) Mice used for L-PHA staining and quantitative RT-PCR were sex and age matched. […] 129/Sv mice were from the original Mgat5 gene targeted population (28). All other mice (SJL, NOD, Balb/c and B10.S) were obtained from Jackson Laboratories. Mouse cells were stained with anti-CD4 (RM4-5), anti-CD8 (53-6.7), anti-CD45R (RA3-6B2) from eBioscience, and L-PHA (4 μg/ml) and LEA (20 μg/ml) from Sigma. […] Jurkat T-cells were cultured in either glutamine free RPMI 1640, 10% FBS, 10 mM/20 mM glucose or glucose/glutamine free DMEM base media supplemented with 10% FBS, 1.5 mM glucose. The indicated monosaccharides and/or metabolites were added daily except glucose which was added only at time zero.
# Jurkat T-cells [2] = assay: LEA-FITC staining (poly-N-acetyllactosamine) of Jurkat T cells, FACS; type: cell-based, human; conditions: 3 days culture with supplement
# Procedure: as §1, §2
# [3] = test system: PL/J and C57/B6 T cell cultures; assay: L-PHA staining of mouse CD3+ T cells stimulated with anti-CD3, FACS; type: cell-based; conditions: for up-regulation of β1,6 GlcNAc branched N-glycans following stimulation: anti-CD3, minimal concentrations; for resting levels of β1,6 GlcNAc branched N-glycans: minimal concentrations
# Procedure: as §1
# Mice used for L-PHA staining and quantitative RT-PCR were sex and age matched. […] 129/Sv mice were from the original Mgat5 gene targeted population (28). All other mice (SJL, NOD, Balb/c and B10.S) were obtained from Jackson Laboratories. Mouse cells were stained with anti-CD4 (RM4-5), anti-CD8 (53-6.7), anti-CD45R (RA3-6B2) from eBioscience, and L-PHA (4 μg/ml) and LEA (20 μg/ml) from Sigma. […] The indicated monosaccharides and/or metabolites were added daily except glucose which was added only at time zero. […] The plateau or highest non-toxic dose is shown.
# CHO cells [4] = assay: L-PHA and ConA lectin staining of CHO cells by FACS; type: cell-based, Chinese Hamster; conditions: CHO cells treated with inhibitor
# Text: (§3) For comparison of N-glycan profiles of mice and human MS patients, CHO cells and CHO cells deficient at 5 different steps in the N-glycan pathway (Glucosidase I, Mannosidase I, MGAT1, Mannosidase II and MGAT5, FIG. 7A) were used to define relative L-PHA and Concanavillin A (ConA) lectin staining levels by FACS along with MALDI TOF N-glycan processing profiles. […] Indeed, a human infant with severe human glucosidase I deficiency accumulates Glc3Man (885 A ion in FIG. 16A, 21C) in the urine, a 4 hexose oligomer which derives from the Glucosidase I substrate Glc3Man9GlcNAc2 via endo-mannosidase activity (70). […] Such activity would produce Man8GlcNAc2, Man7GlcNAc2 and Man6GlcNAc2 structures and allow processing by Mannosidase I/II. Indeed, N-glycans of these 3 compositions accumulate in Glucosidase I/II inhibited cells when Mannosidase I activity is blocked with DMN (69). The larger structures Glc3Man9GlcNAc2 (mass 3008) and Glc3Man7GlcNAc2 (mass 2600) were also observed (67), however they were at lower relative intensities compared to the A ion group (FIG. 21C). […] Mixing CHO and Lec1 cells in various proportions confirmed that relative differences in expression of N-glycan structures can be determined using MALDI TOF (FIG. 21G).
# CHO cells [5] = assay: MALDI-TOF mass spectroscopy N-glycan profile of CHO cells; type: cell-based, Chinese Hamster; conditions: CHO cells treated with inhibitor
# Procedure: This was done as a service at the Glycotechnology core facility, a resource of the Glycobiology Research and Training Center (GRTC) at the University of California, San Diego. CD3+ murine T cells (6×10^6), resting PBMCs from human controls and MS subjects (6×10^6) and CHO cells (10×10^6) were lysed with 1% SDS in 100 mM Tris pH 7.4, dialyzed to remove SDS, digested with trypsin to generate glycopeptides and treated with PNGaseF to release the N-glycans. To focus on early processing, N-glycans were desialylated by mild acid digestion prior to permethylation and MALDI-TOF mass spectroscopy. Monoisotopic peaks in the spectra were identified using GlycanMass and GlycoMod online software, with specific targeting of the N-glycan intermediates occurring during Golgi processing.
# as §3
# Jurkat T-cells [6] = assay: MS/MS mass spectroscopy of sugar-nucleotide expression in Jurkat cell lysates; type: cell-based, human
# Procedure: Jurkat cell pellets (20×10^6) were resuspended in a cold 300 μl methanol:water (1:1) solution containing maltose as internal standard, vortexed for 10 seconds, and then pipetted into tubes containing 600 μl of chloroform:methanol (C:M) (3:2). Samples were vortexed for 1 minute, and then centrifuged at 14,000 rpm for 5 minutes at 4° C. Supernatants were collected, and an equal volume of C:M (1:1) was added, followed by a second extraction. The pooled aqueous fraction containing the hydrophilic metabolites was dried with a speedvac and stored at −80° C. Prior to injection, the samples were dissolved in 100 μl methanol:water (1:1). […] The metabolites were identified by their transitions in MS/MS, and quantified using the Analyte Software (SCIEX), which measured the area under the curve for the fragment ions corresponding to each parent ion. Quantities for the given substrates are graphed as pmole/min/10^6 cells.
# JurkaT-cell pellets (20×10^6) were resuspended in cold 300 μl methanol:water (1:1) solution containing maltose as an internal standard, vortexed for 10 seconds, and then pipetted into tubes containing 600 μl of chloroform:methanol (C:M) (3:2). […] The metabolites were identified by their transitions in MS/MS, and quantified using the Analyte Software (SCIEX), which measured the area under the curve for the fragment ions corresponding to each parent ion. […]
smiles,measurement,setting,value
CC(=O)N[C@H]1C(OC(C)=O)O[C@H](COC(C)=O)[C@@H](OC(C)=O)[C@@H]1OC(C)=O (stereo partly drawn) [GlcNAc-tetra-acetate],"effective concentration to increase Mgat5-modified N-glycan expression, fold less than GlcNAc","Jurkat T-cells [1]; Jurkat T-cells, 3 days",~1000 fold
N[C@H]1C(O)O[C@H](CO)[C@@H](O)[C@@H]1O (stereo partly drawn) [Glucosamine],Mgat5-modified N-glycan expression,Jurkat T-cells [1]; high concentrations,do the opposite; also recorded: declines
same,Mgat5-modified N-glycan expression,Jurkat T-cells [1]; low concentrations,increase; also recorded: works
CC(=O)CC(=O)O [acetoacetate],"Mgat5 N-glycans / β1,6GlcNAc-branched N-glycans expression (L-PHA staining)",Jurkat T-cells [1]; Jurkat T-cells,dose dependently increased
same,poly-N-acetyllactosamine expression (LEA staining),Jurkat T-cells [2],dose dependently increased
N [ammonia],"Mgat5 N-glycans / β1,6GlcNAc-branched N-glycans expression (L-PHA staining)",Jurkat T-cells [1]; Jurkat T-cells,dose dependently increased
same,poly-N-acetyllactosamine expression (LEA staining),Jurkat T-cells [2],dose dependently increased
"O[C@H]1[C@H](O)[C@@H](O)CN2CC[C@H](O)[C@H]12 [castanospermine, reference compound]","up-regulation of β1,6 GlcNAc branched N-glycans following stimulation",[3]; listed as CST,significantly attenuated
same,"resting levels of β1,6 GlcNAc branched N-glycans",[3]; listed as CST,without affecting; also recorded: do not affect
same,"Mgat5 glycan / β1,6GlcNAc-branched N-glycan expression after glycosidase inhibition (L-PHA)","Jurkat T-cells [1]; Jurkat T cells, 3 days",dose dependent reduction; also recorded: reduced
same,"up-regulation of β1,6 GlcNAc branched N-glycans following stimulation","Jurkat T-cells [1]; Jurkat T cells, PMA/ionomycin or anti-CD3, minimal concentrations, listed as CST",significantly attenuated
same,"resting levels of β1,6 GlcNAc branched N-glycans","Jurkat T-cells [1]; Jurkat T cells, minimal concentrations, listed as CST",without affecting; also recorded: do not affect
OC[C@H]1NC[C@@H](O)[C@@H](O)[C@@H]1O [deoxymannojirimycin],"up-regulation of β1,6 GlcNAc branched N-glycans following stimulation",[3]; listed as DMN,significantly attenuated
same,"resting levels of β1,6 GlcNAc branched N-glycans",[3]; listed as DMN,without affecting; also recorded: do not affect
same,high-mannose structures as seen by ConA staining,CHO cells [4],increased
same,"β1,6GlcNAc-branched N-glycan expression by L-PHA staining",CHO cells [4],dramatic reductions
same,MALDI TOF profile of N-glycans (accumulated structures),CHO cells [5],dramatic increases in high mannose structures
same,"β1,6GlcNAc-branched tetra-antennary N-glycans (mass 2969, structure G)",CHO cells [5],diminished
NC(=O)CC[C@H](N)C(=O)O [glutamine],"Mgat5 N-glycans / β1,6GlcNAc-branched N-glycans expression (L-PHA staining)",Jurkat T-cells [1]; Jurkat T-cells,dose dependently increased
same,poly-N-acetyllactosamine expression (LEA staining),Jurkat T-cells [2],dose dependently increased
O=c1cc[nH]c(=O)[nH]1 [uracil],"effective concentration required to raise Mgat5-modified N-glycan expression, fold reduction compared to uridine","Jurkat T-cells [1]; Jurkat T-cells, 3 days",~100 fold
O=c1ccn([C@@H]2O[C@H](CO)[C@@H](O)[C@H]2O)c(=O)[nH]1 [uridine],intracellular UDP-GlcNAc levels,Jurkat T-cells [6],dramatically raised
same,"Mgat5 N-glycans / β1,6GlcNAc-branched N-glycans expression (L-PHA staining)",Jurkat T-cells [1]; Jurkat T-cells,dose dependently increased
same,poly-N-acetyllactosamine expression (LEA staining),Jurkat T-cells [2],dose dependently increased

# From patent US9775859B2, “Methods and compositions for preventing and treating a disease related to glycan dysregulation” (Sinai Health System, priority 2005, dated 2017)
